Columns and labels:
[1] = target: T1, nuclear binding of tritiated dexamethazone (glucocorticoid receptors) (Mus musculus, UniProt P06537); assay: Displacement of the nuclear binding of tritiated dexamethazone in isolated liver, brain, thymus and spleen cells; design: species or system C57BL/6 mouse; conditions: for Displacement coefficient for nuclear binding of tritiated dexamethazone, Liver: liver cells, 100-fold excess of steroid over 2-80 nM 3H-dexamethazone, 60 min; for Displacement coefficient for nuclear binding of tritiated dexamethazone, Liver / Displacement coefficient for nuclear binding of tritiated dexamethazone, Brain / Displacement coefficient for nuclear binding of tritiated dexamethazone, Spleen / Displacement coefficient for nuclear binding of tritiated dexamethazone, Thymus: no competitor = zero, unlabelled dexamethazone = 100, mean of triplicate; for Displacement coefficient for nuclear binding of tritiated dexamethazone, Brain: brain cells; for Displacement coefficient for nuclear binding of tritiated dexamethazone, Spleen: spleen cells; for Displacement coefficient for nuclear binding of tritiated dexamethazone, Thymus: thymus cells
T1 construct: The liver, brain, spleen and thymus are excised and the cells of each organ are recovered; from tissue; host or cells: isolated cells of liver, brain, spleen and thymus of metyrapone-treated C57BL/6 mice
T1 sequence (P06537 1-792): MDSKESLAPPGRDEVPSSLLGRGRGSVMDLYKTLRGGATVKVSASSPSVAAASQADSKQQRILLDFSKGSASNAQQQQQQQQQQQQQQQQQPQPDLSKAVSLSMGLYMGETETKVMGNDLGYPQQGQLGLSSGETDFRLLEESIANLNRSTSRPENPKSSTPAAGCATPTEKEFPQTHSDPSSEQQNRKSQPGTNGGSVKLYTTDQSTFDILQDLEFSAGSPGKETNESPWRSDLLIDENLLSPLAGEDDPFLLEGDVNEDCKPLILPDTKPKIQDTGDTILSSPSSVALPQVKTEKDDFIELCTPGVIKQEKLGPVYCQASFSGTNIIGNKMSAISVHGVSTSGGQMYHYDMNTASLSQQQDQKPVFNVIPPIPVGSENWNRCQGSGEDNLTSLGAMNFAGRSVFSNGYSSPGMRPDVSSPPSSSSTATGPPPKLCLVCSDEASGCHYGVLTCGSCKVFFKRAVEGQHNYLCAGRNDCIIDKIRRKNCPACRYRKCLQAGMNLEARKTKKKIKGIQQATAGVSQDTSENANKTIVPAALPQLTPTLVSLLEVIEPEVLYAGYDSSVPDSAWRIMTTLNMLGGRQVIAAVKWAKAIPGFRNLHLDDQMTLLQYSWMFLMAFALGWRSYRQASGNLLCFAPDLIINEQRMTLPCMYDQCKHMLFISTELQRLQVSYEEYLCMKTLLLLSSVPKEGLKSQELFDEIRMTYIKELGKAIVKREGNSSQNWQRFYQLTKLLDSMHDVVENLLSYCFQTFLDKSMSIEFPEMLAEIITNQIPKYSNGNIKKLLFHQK
Description: The isolated hepatocytes are incubated for 1 hour at room temperature with increasing concentrations (2-80 nM) of ^3 H-dexamethazone (DEX*). […] The hepatocyte nuclei are then isolated and purified and the radioactivity corresponding to the DEX* still bound is measured and expressed in cpm/10 ug of DNA. The area under the curve DEX* corresponds to zero displacement of the radioactivity. The area under the curve DEX*/DEX which corresponds to the displacement of radioactivity by the same molecule is taken arbitrarily as 100. The areas under the curve obtained with the other steroids makes it possible to calculate by interpolation between the areas zero and 100 their displacement coefficients for the nuclear binding of DEX*.
The mice are anesthetized with ether and bled, then perfused intracardially with physiological serum containing collagenase B (0.03 g/100 ml) for 10 minutes. […] The quantities of cells obtained are estimated on the base of the measurement of the DNA contained in the preparations.
The nuclei are recovered and their radioactive content measured as described by the authors cited above.
The area under the curve of tritiated dexamethazone alone is measured and taken as zero. […] The displacement coefficients found for each of the other steroids are calculated by interpolation on this scale, each result being the mean of a triplicate determination.

anti-lysozyme IgG = assay: Immunoenzymatic measurement of anti-lysozyme IgG in serum of mice immunized against lysozyme; assay type: in vivo, C57BL/6 mice; conditions: for Optical densities +/- SD, anti-lysozyme IgG, first serial dilution (*): dilution not given, PREG 0,5 g/kg 1 hour before; for Optical densities +/- SD, anti-lysozyme IgG, 1/180 serial dilution: serum 1/180; for Optical densities +/- SD, anti-lysozyme IgG, 1/180 serial dilution / Optical densities +/- SD, anti-lysozyme IgG, 1/540 serial dilution / Optical densities +/- SD, anti-lysozyme IgG, first serial dilution: s.c., mean of 5 mice; for Optical densities +/- SD, anti-lysozyme IgG, 1/180 serial dilution / Optical densities +/- SD, anti-lysozyme IgG, 1/540 serial dilution: doses and timing as E1; for Optical densities +/- SD, anti-lysozyme IgG, 1/540 serial dilution: serum 1/540; for Optical densities +/- SD, anti-lysozyme IgG, first serial dilution: serum dilution not given, PREG 0,5 g/kg, DHEA 1,0 g/kg, ADIOL 125 mg/kg 1 hour before lysozyme, 7-hydroxy-PREG and 7-hydroxy-DHEA 6,25 mg/kg, 7β-hydroxy-DHEA 50,0 mg/kg, 7- and 7β-hydroxy-ADIOL 25,0 mg/kg with lysozyme; for Effect on serum anti-lysozyme IgG (in words): steroid administered s.c. simultaneously with lysozyme
Description: The immunity effector effect was tested by subcutaneous injection concomitantly with that of an antigen and the 7-alpha- or 7-beta-hydroxylated derivative into C57BL/6 mice according to a standard immunization protocol (Methods in Enzymology (1980), vol. 70).
The effect of the compound as cellular immunity effector is measured by the quantity of circulating IgG directed against the antigen 21 days after the injection and after a booster injection 14 days layer.
Thirty five groups of five 6-weeks old C57BL/6 mice are given a subcutaneous injection of 200 ug of hen egg white lysozyme on days one and fourteen of the immunization protocol. Solutions of DHEA (Sigma D-4500) in dimethyl sulfoxide (DMSO) are injected in the same manner at variable times before the first injection of lysozyme. Amounts ranging from 0.25 and 2 g/kg are used. Ten other groups of 5 mice are given a subcutaneous injection of 6.25 to 50 mg/kg of 7-alpha-hydroxy-DHEA or 7-beta-hydroxy-DHEA dissolved in DMSO at the same time as the first lysozyme injection. Two groups receive only DMSO with lysozyme (controls). The blanks correspond to one group of 5 mice and are not given an injection.
Three weeks after the first injections the animals, then aged 9 weeks, are decapitated. The blood of each animal is collected and the presence of anti-lysozyme G immunoglobulins (IgG) is measured in serial dilutions of the sera by an immunoenzymatic titration using goat anti-mouse (Fc) IgG immunoglobulin labelled with peroxidase.
A group of 5 mice is given the subcutaneous injection of 125 mg/kg of 5-androstene-3-beta, 17-beta-diol (ADIOL) one hour prior to the first injection of lysozyme, and two groups of 5 mice are treated with 25 mg/kg of 7-alpha-hydroxy-ADIOL or 7-beta-hydroxy-ADIOL at the time of the first lysozyme injection.
DHEA or PREG or ADIOL is injected subcutaneously 1 hour before the first lysozyme injection. The 7-hydroxylated derivatives are administered simultaneously with the lysozyme injection. The immunoenzymatic measurement of the anti-lysozyme IgGs in the serial dilutions of the sera of each animal makes use of goat anti-mouse (Fc) IgG immunoglobulin, labelled with peroxidase in 96-well plates treated with lysozyme. The mean value of the optical densities measured in each group of 5 mice is calculated as well as the standard deviation (SD).

[2] = * calculated from measurements on higher dilutions of the serum, 7-hydroxy-PREG 6,25 mg/kg with lysozyme

SMILES	Displacement coefficient for nuclear binding of tritiated dexamethazone, Liver [1]	Optical densities +/- SD, anti-lysozyme IgG, 1/180 serial dilution (anti-lysozyme IgG)	Optical densities +/- SD, anti-lysozyme IgG, 1/540 serial dilution (anti-lysozyme IgG)	further results
C[C@]12CC[C@H](O)C[C@@H]1C[C@H](O)[C@@H]1[C@@H]2CC[C@]2(C)C(=O)CC[C@@H]12 [Steroid 7β-OH-ISOA, 3-beta, 7-beta-dihydroxy-5-alpha-androstane-17-one]	68	–	–	–
C[C@]12CC[C@H](O)C[C@@H]1C[C@@H](O)[C@@H]1[C@@H]2CC[C@]2(C)[C@@H](O)CC[C@@H]12 [Steroid 7α-OH-ADIOL, 5-alpha-androstane-3-beta, 7-alpha, 17-beta-triol]	83	–	–	Displacement coefficient for nuclear binding of tritiated dexamethazone, Brain ([1]; 100-fold excess of steroid): 96; Displacement coefficient for nuclear binding of tritiated dexamethazone, Spleen ([1]; 100-fold excess of steroid): 125; Displacement coefficient for nuclear binding of tritiated dexamethazone, Thymus ([1]; 100-fold excess of steroid): 96
CC(=O)[C@H]1CC[C@H]2[C@@H]3CC=C4C[C@@H](O)CC[C@]4(C)[C@H]3CC[C@]12C [PREG, 3-beta-hydroxy-5-pregnen-20-one, reference compound]	–	1,83 ± 0,48	0,56 ± 0,15	Optical densities +/- SD, anti-lysozyme IgG, first serial dilution (*) (anti-lysozyme IgG; [2]): 4,67 ± 1,21; Effect on serum concentrations of anti-lysozyme IgG (in words) (anti-lysozyme IgG; steroid administered s.c. at least one hour prior to the injection of lysozyme): increase the serum concentrations of anti-lysozyme IgG
CC(=O)[C@H]1CC[C@H]2[C@@H]3C(=O)C=C4C[C@@H](O)CC[C@]4(C)[C@H]3CC[C@]12C [Steroid 7-oxo-PREG, 3-beta-hydroxy-5-pregnen-7,20-dione]	35	–	–	–
C[C@]12CC[C@H]3[C@@H]([C@H](O)C=C4C[C@@H](O)CC[C@@]43C)[C@@H]1CC[C@@H]2O [7-hydroxy-ADIOL, androst-5-ene-3-beta, 7-alpha, 17-beta-triol]	88	0,14 ± 0,01	0,11 ± 0,01	Optical densities +/- SD, anti-lysozyme IgG, first serial dilution (anti-lysozyme IgG): 0,15 ± 0,02; Displacement of tritiated dexamethazone from nuclear binding / anti-glucocorticoid action (in words) ([1]; 100-fold excess of steroid): demonstrates its anti-glucocorticoid effect
C[C@]12CC[C@H]3[C@@H]([C@@H](O)C=C4C[C@@H](O)CC[C@@]43C)[C@@H]1CC[C@@H]2O [7β-hydroxy-ADIOL, androst-5-ene-3-beta,7-beta, 17-beta-triol]	–	0,18 ± 0,02	0,12 ± 0,01	Optical densities +/- SD, anti-lysozyme IgG, first serial dilution (anti-lysozyme IgG): 0,18 ± 0,06
CC(=O)[C@H]1CC[C@H]2[C@@H]3[C@@H](O)C=C4C[C@@H](O)CC[C@]4(C)[C@H]3CC[C@]12C [Steroid 7β-OH-PREG, 7-beta-hydroxy-pregnenolone]	82	–	–	–
C[C@]12CC[C@H](O)C[C@@H]1[C@@H](O)C[C@@H]1[C@@H]2CC[C@]2(C)C(=O)CC[C@@H]12 [Steroid 6α-OH-ISOA, 3-beta, 6-alpha-dihydroxy-5-alpha-androstane-17-one]	63	–	–	–
C[C@]12CC[C@H](O)C[C@@H]1C[C@@H](O)[C@@H]1[C@@H]2CC[C@]2(C)C(=O)CC[C@@H]12 [Steroid 7α-OH-ISOA, 3-beta, 7-alpha-dihydroxy-5-alpha-androstane-17-one]	102	–	–	–
CC(=O)[C@H]1CC[C@H]2[C@@H]3[C@H](O)C=C4C[C@@H](O)CC[C@]4(C)[C@H]3CC[C@]12C [7-hydroxy-PREG, 7-alpha-hydroxy-PREG]	34	–	0,77 ± 0,05	Optical densities +/- SD, anti-lysozyme IgG, first serial dilution (*) (anti-lysozyme IgG; [2]): 4,46 ± 0,30; Optical densities +/- SD, anti-lysozyme IgG, 1/180 serial dilution (*) (anti-lysozyme IgG; * calculated from measurements on higher dilutions of the serum, 1/180, 7-hydroxy-PREG 6,25 mg/kg with lysozyme): 2,20 ± 0,14; Displacement coefficient for nuclear binding of tritiated dexamethazone, Brain ([1]; 100-fold excess of steroid): 38; Displacement coefficient for nuclear binding of tritiated dexamethazone, Spleen ([1]; 100-fold excess of steroid): 81; Displacement coefficient for nuclear binding of tritiated dexamethazone, Thymus ([1]; 100-fold excess of steroid): 94
C[C@]12CC[C@H](O)C[C@@H]1CC(=O)[C@@H]1[C@@H]2CC[C@]2(C)C(=O)CC[C@@H]12 [Steroid 7-oxo-ISOA, 3-beta-hydroxy-5-alpha-androstane-7,17-dione]	84	–	–	–
C[C@]12CC[C@H](O)CC1=CC(=O)[C@@H]1[C@@H]2CC[C@]2(C)C(=O)CC[C@@H]12 [Steroid 7-oxo-DHEA, 3-beta-hydroxy-5-androsten-7,17-dione]	28	–	–	–
C[C@]12CC[C@H](O)CC1=C[C@H](O)[C@@H]1[C@@H]2CC[C@]2(C)C(=O)CC[C@@H]12 [7β-hydroxy-DHEA, 3-beta, 7-beta-dihydroxy-androst-5-en-17-one]	80	0,31 ± 0,04	0,13 ± 0,01	Optical densities +/- SD, anti-lysozyme IgG, first serial dilution (anti-lysozyme IgG): 0,46 ± 0,06; Effect on serum anti-lysozyme IgG (in words) (anti-lysozyme IgG; listed as 7-beta-OH-DHEA): effect equivalent to that of DHEA injected 1 hour before the antigen, but at doses 20 times lower; Effect on serum anti-lysozyme IgG (in words) (anti-lysozyme IgG; listed as 7-beta-hydroxy-DHEA): response identical with that of 1 g/kg of DHEA administered 1 hour prior to that of lysozyme; Displacement coefficient for nuclear binding of tritiated dexamethazone, Brain ([1]; 100-fold excess of steroid): 65
